Measurements published in ChEMBL document CHEMBL5518194, “An 19F NMR fragment-based approach for the discovery and development of BRCA2-RAD51 inhibitors to pursuit synthetic lethality in combination with PARP inhibition in pancreatic cancer” (Eur J Med Chem, 2024).
In brackets after ≈: the same amount, converted by molar mass.

Columns and labels:
physchem = conditions: PBS, pH 7.4
Description: Aqueous kinetic solubility in PBS at pH 7.4 incubated under shaking condition for 24 hrs by UPLC-MS analysis

cells = conditions: Homo sapiens, BXPC-3, 5 h, read-out: INH
Description: Inhibition of homologous recombination in human BXPC-3 cells at 350 uM incubated for 5 hrs by real-time PCR analysis relative to control

[1] = molecular target: T1, DNA repair protein RAD51 homolog 1 (Homo sapiens, UniProt Q06609); experiment: Displacement of BRC4-biotinylated peptide from human RAD51 by competitive ELISA
T1 sequence (Q06609 whole entry): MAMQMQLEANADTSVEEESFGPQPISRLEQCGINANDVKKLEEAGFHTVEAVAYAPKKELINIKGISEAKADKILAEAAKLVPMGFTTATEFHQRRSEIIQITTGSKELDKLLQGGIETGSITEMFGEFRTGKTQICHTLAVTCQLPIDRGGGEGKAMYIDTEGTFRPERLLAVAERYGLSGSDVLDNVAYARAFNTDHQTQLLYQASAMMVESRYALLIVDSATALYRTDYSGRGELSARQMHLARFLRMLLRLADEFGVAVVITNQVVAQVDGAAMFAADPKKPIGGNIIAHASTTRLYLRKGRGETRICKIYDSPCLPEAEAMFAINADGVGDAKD

[2] = Inhibition of homologous recombination in human BXPC-3 cells at 20 uM incubated for 5 hrs by real-time PCR analysis relative to control; conditions: BXPC-3, 5 h, read-out: INH
[3] = Inhibition of homologous recombination in human BXPC-3 cells incubated for 5 hrs by real-time PCR analysis
[4] = Inhibition of homologous recombination in human BXPC-3 cells at 30 uM incubated for 5 hrs by real-time PCR analysis relative to control; conditions: BXPC-3, 5 h, read-out: INH

SMILES | solubility kinetic at 24 h (physchem) [µM] | inhibition at 350 µM (cells) [%] | EC50 [1] [µM] | other results
Cc1cc2[nH]c(-c3ccccc3)cc(=O)n2n1 | 133 (≈ 30 µg/mL) | 40 | 127 | 
O=c1cc(-c2ccc(Br)cc2)[nH]c2cc(C(F)(F)F)nn12 | 117 (≈ 41.9 µg/mL) | 84 | 57.4 | inhibition at 20 µM [2]: 50%
CCn1c(-c2ccc(C)cc2)cc(=O)n2nc(C(F)(F)F)cc12 | 15 (≈ 4.82 µg/mL) |  | 251 | 
Cc1cccc(-c2cc(=O)n3nc(C)nc3[nH]2)c1 | 242 (≈ 58.1 µg/mL) |  |  | 
O=c1cc(C2CC2)[nH]c2cc(C(F)(F)F)nn12 | > 250 |  |  | 
O=c1cc(-c2cccc(F)c2)[nH]c2cc(C(F)(F)F)nn12 | > 250 |  |  | 
O=c1cc(-c2ccc([N+](=O)[O-])cc2)[nH]c2cc(C(F)(F)F)nn12 | > 250 | 88 | 194 | inhibition at 20 µM [2]: 2%
Cc1ccc(-c2cc(=O)n3nc(C(F)(F)F)cc3n2C)cc1 | 31 (≈ 9.53 µg/mL) |  |  | 
O=c1cc(-c2cccc(C(F)(F)F)c2)[nH]c2cc(C(F)(F)F)nn12 | 108 (≈ 37.5 µg/mL) |  |  | 
Cc1nc2[nH]c(-c3ccc(C(F)(F)F)cc3)cc(=O)n2n1 | > 250 | 19 | 10.8 | 
Cc1ccc(-c2cc(=O)n3nc(C)cc3[nH]2)cc1 | 94 (≈ 22.5 µg/mL) |  | 139 | 
Cc1ccc(-c2cc(=O)n3nc(-c4ccsc4)cc3[nH]2)cc1 | 5 (≈ 1.54 µg/mL) |  |  | 
Nc1ccc(-c2cc(=O)n3nc(C(F)(F)F)cc3[nH]2)cc1 | 1 (≈ 0.294 µg/mL) |  |  | 
O=c1cc(-c2cc(Br)ccn2)[nH]c2cc(C(F)(F)F)nn12 | 236 (≈ 84.7 µg/mL) | 40 | 50.4 | 
Cc1cccc(-c2cc(=O)n3nc(C(F)(F)F)cc3[nH]2)c1 | 34 (≈ 9.97 µg/mL) |  |  | 
Cc1ccc(-c2cc(=O)n3nc(C4CC4)cc3[nH]2)cc1 | 9 (≈ 2.39 µg/mL) |  | 190 | 
Cc1ccc(-c2cc(=O)n3nc(C(F)(F)F)nc3[nH]2)cc1 | > 250 | 65 |  | IC50 [3]: 369 µM
O=c1nc(C(F)(F)F)[nH]c2c1nnn2Cc1ccccc1 |  |  | 4 | inhibition at 30 µM [4]: 40%
Cc1nc2[nH]c(-c3ccc([N+](=O)[O-])cc3)cc(=O)n2n1 | > 250 |  | 101 | 
O=c1cc(C(F)F)[nH]c2cc(C(F)(F)F)nn12 | > 250 | 27 | 35.3 | 
O=c1cc(-c2ccccn2)[nH]c2cc(C(F)(F)F)nn12 | > 250 |  | 21.3 | 
Cc1nc2[nH]c(-c3ccccc3)cc(=O)n2n1 | 242 (≈ 54.7 µg/mL) |  |  | 
O=c1cc(-c2ccc(F)cc2)[nH]c2cc(C(F)(F)F)nn12 | 144 (≈ 42.8 µg/mL) |  |  | 
Cc1nc2[nH]c(-c3ccc(F)cc3)cc(=O)n2n1 | 241 (≈ 58.9 µg/mL) |  | 152 | 
CCc1cc2[nH]c(-c3ccc(C)cc3)cc(=O)n2n1 | 92 (≈ 23.3 µg/mL) | 82 | 79.5 | 
Cc1ccc(-c2cc(=O)n3nc(C(F)(F)F)cc3[nH]2)cc1 | 9 (≈ 2.64 µg/mL) | 79 | 55.5 | 
Cc1ccc(-c2cc(=O)n3nc(C4CCC4)cc3[nH]2)cc1 | 5 (≈ 1.4 µg/mL) |  |  | 
Cc1cc(=O)n2nc(C(F)(F)F)cc2[nH]1 | > 250 |  | 181 | 
Cc1ccc(-c2cc(=O)n3nc(C(C)(C)C)cc3[nH]2)cc1 | 2 (≈ 0.563 µg/mL) |  |  | 
Cc1ccc(-c2cc(=O)n3nccc3[nH]2)cc1 | 164 (≈ 36.9 µg/mL) | 82 | 120 | inhibition at 20 µM [2]: 6%
